# Earlier results in PubChem BioAssay AID1259409 (Chemical Carcinogenesis Research Information System (CCRIS), 2018).
# Test system: rodent chemically induced tumor inhibition, incidence and multiplicity
# Experiment: CCRIS tumor inhibitor studies
# Details: for tumour outcome (control, treated, inhibition, significance): Route [Inhibitor]: ORAL; for outcome: Carcinogen: N,N-Diethylnitrosamine, Route [Inhibitor]: Intravenous, Species: Rat, Strain/Sex: Swiss-Albino/Male, Target Tissue: Type of Lesion: Liver: preneoplastic lesions, Promoter: None
structure (smiles),measurement,setting,value
O=c1c(O)c(-c2ccc(O)c(O)c2)oc2cc(O)cc(O)c12,"tumour outcome (control, treated, inhibition, significance)","Carcinogen: DIETHYLNITROSAMINE, 55-18-5, N-METHYLNITROSOUREA, 684-93-5, 1,2-DIMETHYLHYDRAZINE, 540-73-8, N-BUTYL-N-(4-HYDROXYB, Carcinogen: DIETHYLNITROSAMINE, 55-18-5, N-METHYLNITROSOUREA, 684-93-5, 1,2-DIMETHYLHYDRAZINE, 540-73-8, N-BUTYL-N-(4-HYDROXYB, Dose [Inhibitor]: 0, 1% IN DIET FOR 32 WK BEGINNING POST CARCINOGEN TREATMENT (STUDY DURATION: 36 WK), Species: RAT, Strain/Sex: F344/MALE, Target Tissue: Type of Lesion: SMALL INTESTINE: ADENOMA, Dose [Carcinogen]: 100 MG/KG DEN ONCE, 20 MG/KG MNU 4 TIMES, 40 MG/KG DMH 4 TIMES, 0.05% BBN IN DRINKING WATER FOR 2 WK, 0.1% DHPN IN D, Dose [Carcinogen]: 100 MG/KG DEN ONCE, 20 MG/KG MNU 4 TIMES, 40 MG/KG DMH 4 TIMES, 0.05% BBN IN DRINKING WATER FOR 2 WK, 0.1% DHPN IN D, Promoter: NONE USED","6/14 (43%), 0/12 (0%), 100%, p<0.05"
same,"tumour outcome (control, treated, inhibition, significance)","Carcinogen: DIETHYLNITROSAMINE, 55-18-5, N-METHYLNITROSOUREA, 684-93-5, 1,2-DIMETHYLHYDRAZINE, 540-73-8, N-BUTYL-N-(4-HYDROXYB, Carcinogen: DIETHYLNITROSAMINE, 55-18-5, N-METHYLNITROSOUREA, 684-93-5, 1,2-DIMETHYLHYDRAZINE, 540-73-8, N-BUTYL-N-(4-HYDROXYB, Dose [Inhibitor]: 0, 1% IN DIET FOR 32 WK BEGINNING POST CARCINOGEN TREATMENT (STUDY DURATION: 36 WK), Species: RAT, Strain/Sex: F344/MALE, Target Tissue: Type of Lesion: SMALL INTESTINE: CARCINOMA, Dose [Carcinogen]: 100 MG/KG DEN ONCE, 20 MG/KG MNU 4 TIMES, 40 MG/KG DMH 4 TIMES, 0.05% BBN IN DRINKING WATER FOR 2 WK, 0.1% DHPN IN D, Dose [Carcinogen]: 100 MG/KG DEN ONCE, 20 MG/KG MNU 4 TIMES, 40 MG/KG DMH 4 TIMES, 0.05% BBN IN DRINKING WATER FOR 2 WK, 0.1% DHPN IN D, Promoter: NONE USED","5/14 (36%), 0/12 (0%), 100%, p<0.05"
same,"tumour outcome (control, treated, inhibition, significance)","Carcinogen: DIETHYLNITROSAMINE, 55-18-5, N-METHYLNITROSOUREA, 684-93-5, 1,2-DIMETHYLHYDRAZINE, 540-73-8, N-BUTYL-N-(4-HYDROXYBU, Carcinogen: DIETHYLNITROSAMINE, 55-18-5, N-METHYLNITROSOUREA, 684-93-5, 1,2-DIMETHYLHYDRAZINE, 540-73-8, N-BUTYL-N-(4-HYDROXYBU, Dose [Inhibitor]: 0, 1% IN DIET FOR 32 WK BEGINNING POST CARCINOGEN TREATMENT (STUDY DURATION: 36 WK), Species: RAT, Strain/Sex: F344/MALE, Target Tissue: Type of Lesion: LARGE INTESTINE: ADENOMA, Dose [Carcinogen]: 100 MG/KG DEN ONCE, 20 MG/KG MNU 4 TIMES, 40 MG/KG DMH 4 TIMES, 0.05% BBN IN DRINKING WATER FOR 2 WK, 0.1% DHPN IN D, Dose [Carcinogen]: 100 MG/KG DEN ONCE, 20 MG/KG MNU 4 TIMES, 40 MG/KG DMH 4 TIMES, 0.05% BBN IN DRINKING WATER FOR 2 WK, 0.1% DHPN IN D, Promoter: NONE USED","7/14 (50%), 3/12 (25%), 50%, not significant"
same,"tumour outcome (control, treated, inhibition, significance)","Carcinogen: DIETHYLNITROSAMINE, 55-18-5, N-METHYLNITROSOUREA, 684-93-5, 1,2-DIMETHYLHYDRAZINE, 540-73-8, N-BUTYL-N-(4-HYDROXYBU, Carcinogen: DIETHYLNITROSAMINE, 55-18-5, N-METHYLNITROSOUREA, 684-93-5, 1,2-DIMETHYLHYDRAZINE, 540-73-8, N-BUTYL-N-(4-HYDROXYBU, Dose [Inhibitor]: 0, 1% IN DIET FOR 32 WK BEGINNING POST CARCINOGEN TREATMENT (STUDY DURATION: 36 WK), Species: RAT, Strain/Sex: F344/MALE, Target Tissue: Type of Lesion: LUNG: ADENOMA, Dose [Carcinogen]: 100 MG/KG DEN ONCE, 20 MG/KG MNU 4 TIMES, 40 MG/KG DMH 4 TIMES, 0.05% BBN IN DRINKING WATER FOR 2 WK, 0.1% DHPN IN D, Dose [Carcinogen]: 100 MG/KG DEN ONCE, 20 MG/KG MNU 4 TIMES, 40 MG/KG DMH 4 TIMES, 0.05% BBN IN DRINKING WATER FOR 2 WK, 0.1% DHPN IN D, Promoter: NONE USED","6/14 (43%), 3/12 (25%), 42%, not significant"
same,outcome,"55-18-5, Dose [Inhibitor]: 0.5 ml suspension of 0.2% tween 80 aqueous soln with 0.898 mM quercetin once a wk for 16 wk, Dose [Carcinogen]: 200 mg/kg bw in 0.5 ml olive oil three times at 15 day intervals beginning on wk 1","1205+/-102, 1111+/-56, not significant"
same,outcome,"55-18-5, Dose [Inhibitor]: 0.5 ml suspension of galactosylated liposomal quercitin, 0.898 mM, once a wk for 16 wk, study duration 18 wk, Dose [Carcinogen]: 200 mg/kg bw in 0.5 ml olive oil three times at end of 1st, 3rd and 5th wk, study duration 18 wk","1205+/-102, 361+/-22, significant"
same,outcome,"55-18-5, Dose [Inhibitor]: 0.5 ml suspension of liposomal quercitin, 0.898 mM, once a wk for 16 wk, study duration 18 wk, Dose [Carcinogen]: 200 mg/kg bw in 0.5 ml olive oil three times at end of 1st, 3rd and 5th wk, study duration 18 wk","1205+/-102, 861+/-81, significant"
same,"tumour outcome (control, treated, inhibition, significance)","Carcinogen: N-BUTYL-N-(4-HYDROXYBUTYL)NITROSAMINE, 3817-11-6, Dose [Inhibitor]: 5% DIET DAILY FOR 34 WK STARTING AT COMPLETION OF CARCINOGEN TREATMENT (STUDY DURATION: 38 WK), Species: RAT, Strain/Sex: F344/MALE, Target Tissue: Type of Lesion: URINARY BLADDER: PAPILLOMA, Dose [Carcinogen]: 0.01% IN DRINKING WATER FOR 4 WK, Promoter: NONE USED","33%, 17%, 48%, not significant"
same,"tumour outcome (control, treated, inhibition, significance)","Carcinogen: N-NITROSODIETHYLAMINE, 55-18-5, 2-ACETYLAMINOFLUORENE, 53-93-6, CARBON TETRACHLORIDE, 56-23-5, Carcinogen: N-NITROSODIETHYLAMINE, 55-18-5, 2-ACETYLAMINOFLUORENE, 53-93-6, CARBON TETRACHLORIDE, 56-23-5, Dose [Inhibitor]: 0, 1.5% IN DIET FOR 29 WK ADMINISTERED TO RATS BEARING PERSISTENT NODULES FOLLOWING CARCINOGEN TREATMENT (STUDY DURATION, Species: RAT, Strain/Sex: F344/MALE, Target Tissue: Type of Lesion: LIVER: HEPATOCELLULAR CARCINOMA, Dose [Carcinogen]: 200 MG/KG BW DEN ONCE, 0.002% 2-AAF IN DIET FOR 2 WK, 1 MG/KG BW CCL4 MIDWAY IN 2-AAF TREATMENT, Dose [Carcinogen]: 200 MG/KG BW DEN ONCE, 0.002% 2-AAF IN DIET FOR 2 WK, 1 MG/KG BW CCL4 MIDWAY IN 2-AAF TREATMENT, Promoter: NONE USED","7/8 (88%), 7/11 (64%), 27%, not significant"
same,"tumour outcome (control, treated, inhibition, significance)","Carcinogen: N-NITROSODIETHYLAMINE, 55-18-5, 2-ACETYLAMINOFLUORENE, 53-93-6, CARBON TETRACHLORIDE, 56-23-5, Carcinogen: N-NITROSODIETHYLAMINE, 55-18-5, 2-ACETYLAMINOFLUORENE, 53-93-6, CARBON TETRACHLORIDE, 56-23-5, Dose [Inhibitor]: 0, 1.5% IN DIET FOR 29 WK ADMINISTERED TO RATS BEARING PERSISTENT NODULES FOLLOWING CARCINOGEN TREATMENT (STUDY DURATION, Species: RAT, Strain/Sex: F344/MALE, Target Tissue: Type of Lesion: LIVER: HEPATOCELLULAR CARCINOMA, Dose [Carcinogen]: 200 MG/KG BW DEN ONCE, 0.002% 2-AAF IN DIET FOR 2 WK, 1 ML/KG BW CCL4 MIDWAY IN 2-AAF TREATMENT, Dose [Carcinogen]: 200 MG/KG BW DEN ONCE, 0.002% 2-AAF IN DIET FOR 2 WK, 1 ML/KG BW CCL4 MIDWAY IN 2-AAF TREATMENT, Promoter: PHENOBARBITAL, 50-06-6","12/12 (100%), 13/14 (93%), 7%, not significant"
same,"tumour outcome (control, treated, inhibition, significance)","Carcinogen: N-NITROSOMETHYLUREA, 684-93-5, Dose [Inhibitor]: 5.0% IN DIET BEGINNING 1 WK PRIOR TO CARCINOGEN DOSE AND CONTINUING FOR DURATION OF STUDY (STUDY DURATION: 21 WK), Species: RAT, Strain/Sex: SPRAGUE-DAWLEY/FEMALE, Target Tissue: Type of Lesion: MAMMARY GLAND: TUMOR, Dose [Carcinogen]: 50 MG/KG BW IN 0.9% SALINE AND 5% ACETIC ACID STABILIZER ONCE, Promoter: NONE USED","78%, 70%, 10%, not calculated"
same,"tumour outcome (control, treated, inhibition, significance)","Dose [Inhibitor]: 0, 2000 PPM IN DIET BEGINNING 8 WK PRIOR TO CARCINOGEN AND CONTINUING FOR 6 WK POST CARCINOGEN (STUDY DURATION: 68 WK), Species: FISH, Strain/Sex: RAINBOW TROUT, Target Tissue: Type of Lesion: LIVER: HEPATOCELLULAR CARCINOMA, Dose [Carcinogen]: 20 PPB IN DIET FOR 2 WK, Promoter: NONE USED","43/118 (36%), 30/115 (26%), 27%, not significant"
